Assay results taken from article PMC8747035, “Design, Synthesis, and Biological Evaluation of 5,6,7,8-Tetrahydrobenzo[4,5]thieno[2,3-d]pyrimidines as Microtubule Targeting Agents” (Molecules, 2022).
“Also recorded” adds a separate entry of the source. Read-outs that look alike come from different tables or passages of the source.

Columns and labels:
A-10 cells = assay: Cellular microtubule depolymerization in A-10 cells (immunofluorescence); assay type: cell-based; conditions: for EC50: Rattus norvegicus, A10, 18 h, loss of 50% of interphase microtubules; for Microtubule depolymerization activity in A-10 cells: at a 10 µM concentration
Protocol: (§1) We investigated the microtubule depolymerization and the antiproliferative activities of compounds 4–14 (Table 2). […] We next evaluated the importance of the 4′-OMe group of compound 4 by replacing it with an isosteric 4′-SMe (5). […] Clearly, this further substantiated the importance of an S in the scaffold over an NH.
The effects of the compounds on cellular microtubules were evaluated in A-10 cells using indirect immunofluorescence microscopy. These cells were obtained from the American Type Culture Collection (ATCC) (Manassas, VA, USA). Cells were treated with the compounds of interest for 18 h, and the cells fixed with cold MeOH and microtubule structures were visualized using a β-tubulin antibody (Sigma-Aldrich, St. Louis, MO, USA). The concentration that caused loss of 50% of the interphase microtubules was defined as the EC50 and calculated as previously described. These values represent an average of at least three independent experiments.

MDA-MB-435 cells = assay: Antiproliferative SRB assay in MDA-MB-435 cells; assay type: cell-based, human; conditions: read-out: IC50 ± SD in MDA-435 Cells
Protocol: as §1
(§2) The antiproliferative and cytotoxic effects of the compounds in cancer cells were evaluated using the SRB assay as previously described. MDA-MB-435 cells were obtained from the Lombardi Cancer Center of Georgetown University (Washington, DC, USA). SK-OV-3 and HeLa cells were purchased from ATCC. Details about the generation of the SK-OV-3 MDR1-M6/6 and HeLa WTβIII cells were described previously. The IC50 values represent an average of three independent experiments, each conducted using triplicate points.
(§3) HeLa, A-10, SK-OV-3, and SK-OV-3 MDR1-M6/6 cells were grown in Basal Medium Eagle (Sigma-Aldrich, St. Louis, MO, USA) supplemented with 10% FBS (Hyclone, GE Life Sciences, Logan, UT, USA) 1% GlutaMAX (Gibco, Life Technologies, Waltham, MA, USA) and 50 µg/mL gentamycin (Life Technologies, USA). HeLa WTβIII cells were grown in Dulbecco’s Modified Eagle Medium (Life Technologies) supplemented with 10% FBS and 50 µg/mL gentamycin. MDA-MB-435 cells were maintained in Improved Minimum Essential Medium (Life Technologies) supplemented with 10% FBS and 25 µg/mL gentamycin. All cells were grown at 37 °C in a humidified environment with 5% CO2.

Bovine brain tubulin = assay: Inhibition of purified tubulin assembly (turbidity); assay type: biochemical; conditions: 10 µM tubulin, 30 °C; read-out: Inhibition of Tubulin Assembly IC50 ± SD
Protocol: (§4) Bovine brain tubulin was purified as described previously. The tubulin assembly assay has been described in detail. Briefly, 1.0 mg/mL of tubulin (10 µM) was preincubated for 15 min at 30 °C in 0.8 M monosodium glutamate (pH of 2 M stock solution adjusted to 6.6 with HCl), varying compound concentrations and 4% (v/v) DMSO as compound solvent. After the preincubation, the reaction mixtures were placed on ice and 0.4 mM GTP was added. The reaction mixtures were transferred to cuvettes at 0 °C in a recording spectrophotometer equipped with an electronic temperature controller. After baselines were established, the temperature was elevated over about 30 s to 30 °C, and changes in turbidity were monitored at 350 nm for 20 min. The compound concentration that caused a 50% reduction in increase in turbidity, interpolated from the values obtained with defined compound concentrations, was defined as the IC50 value. The assay to measure inhibition of [^3H]colchicine binding was described in detail previously. Briefly, 0.1 mg/mL (1.0 µM) tubulin was incubated at 37 °C with 5.0 µM [3H]colchicine and potential inhibitors at 5.0 µM. Incubation was for 10 min, at which point the reaction had reached 40–60% of the maximum colchicine that can be bound in reaction mixtures without inhibitor. The [^3H]colchicine was a product of PerkinElmer, USA. CA-4 was a generous gift of Dr. G. R. Pettit, Arizona State University.

HeLa cells = assay: SRB assay in HeLa cells; assay type: cell-based; conditions: Homo sapiens, read-out: IC50 ± SD in HeLa
Protocol: (§5) Compounds 4–8, 10, 12, and 13 were evaluated for their abilities to overcome βIII-tubulin mediated drug resistance using an isogenic HeLa cell line pair (Table 4). […] The Rr values (Table 4) were calculated by dividing the IC50 of the βIII-tubulin expressing line by the IC50 obtained in the parental HeLa cells.
as §2, §3

tubulin = assay: Inhibition of [3H]colchicine binding to tubulin; set-up: species or system Bovine; conditions: compound at 5 μM, 5.0 µM [3H]colchicine, 1.0 µM tubulin
Protocol: as §4, with “Incubation was for 10 min, at which point the reaction had reached 40–60% of the maximum colchicine that can be bound in reaction mixtures without inhibitor.” left out, “USA.” for “USA. CA-4 was a generous gift of Dr. G. R. Pettit, Arizona State University.”

SK-OV-3 cells = assay: SRB assay in SK-OV-3 cells; assay type: cell-based; conditions: Homo sapiens, read-out: IC50 ± SD in SK-OV-3 Cells
Protocol: (§6) Comparison of the IC50 values in the parental SK-OV-3 and genetically manipulated SK-OV-3 MDR1-M6/6 cell line allows for the calculation of a relative resistance value, designated Rr. This value is calculated by dividing the IC50 value obtained in the Pgp-expressing SK-OV-3 MDR1-M6/6 cells by the IC50 obtained in the parental SK-OV-3 cells.
as §2, §3

SK-OV-3 MDR1-M6/6 cells = assay: SRB assay in Pgp-expressing SK-OV-3 MDR1-M6/6 cells; assay type: cell-based; conditions: Homo sapiens, SKOV3-MDR1-M6/6, read-out: IC50 ± SD in SK-OV-3 MDR1-M6/6 Cells
Protocol: as §6, §2, §3

HeLa WTβIII cells = assay: SRB assay in βIII-tubulin expressing HeLa WTβIII cells; assay type: cell-based; conditions: Homo sapiens, read-out: IC50 ± SD in HeLa WTβ3
Protocol: as §5, §2, §3

MDA-MB-435 tumors = assay: MDA-MB-435 xenograft model; assay type: in vivo, nude mice; conditions: 15 mg/kg i.p. 3 times a week
Protocol: Compound 4 was selected for further evaluation in an in vivo xenograft mouse study in light of its nanomolar potency in vitro in the NCI-60 cancer cell line panel and its potent microtubule depolymerization activity. The in vivo effects of 4 were tested in the MDA-MB-435 xenograft model (Figure 5).
MDA-MB-435 tumor fragments were implanted s.c. into the flanks of female nude mice. […] Compound 4 was dissolved in a 50:50 Cremophor EL/DMSO mixture and further dissolved in PBS for a final concentration of 10:10:80 Cremophor EL:DMSO:PBS (v/v). […] Tumor volumes and mouse weights were measured 2–3 times a week. A two-way ANOVA with Dunnett’s post-hoc tests including all treatment groups in the trial was used to determine significant differences in tumor volumes between drug-treated and untreated control groups on each measurement day. These animal studies were performed at the University of Texas Health Science Center in San Antonio in compliance with an approved Institutional Animal Care and Use protocol.
MDA-MB-435 tumors were implanted into the flanks of nude mice and allowed to grow until they reached a volume of ~200 mm^3. […] Tumor volumes and mouse weights were measured 2–3 times a week. Statistical significance was evaluated by two-way ANOVA (time vs. drug) with Dunnett’s post-hoc tests. A statistically significant difference in tumor volume was detected on day 14 between mice treated with 4 (* p = 0.0384) and untreated control tumors.

Row | EC50 (A-10 cells) [nM] | IC50 (MDA-MB-435 cells; Homo sapiens) [nM] | IC50 (Bovine brain tubulin) [nM] | IC50 (HeLa cells) [nM] | Inhibition of Colchicine Binding (% inhibition ± SD) (tubulin) [%] | IC50 (SK-OV-3 cells) [nM] | IC50 (SK-OV-3 MDR1-M6/6 cells) [nM] | IC50 (HeLa WTβIII cells) [nM] | IC50 (MDA-MB-435 cells) [nM] | SMILES | Microtubule depolymerization activity in A-10 cells (A-10 cells) | Antitumor effects on MDA-MB-435 tumor volume vs control (MDA-MB-435 tumors)
1 | 150 | 125 ± 14 |  | 191 ± 8.1 |  | 178 ± 1.1 | 223 ± 9.4 | 203 ± 12 |  | COc1ccc2c(c1)CCCN2c1nc(C)nc2sc3c(c12)CCCC3 [Compound 12, 4-(6-Methoxy-3,4-dihydroquinolin-1(2H)-yl)-2-methyl-5,6,7,8-tetrahydrobenzo[4,5]thieno[2,3-d]pyrimidine] |  | 
2 | 118 | 81.3 ± 8.4 |  | 170 ± 34 |  | 142 ± 22 | 143 ± 244 | 139 ± 20 |  | COc1cccc2cc(N(C)c3nc(C)nc4sc5c(c34)CCCC5)ccc12 [Compound 13, N-(5-methoxynaphthalen-2-yl)-N,2-dimethyl-5,6,7,8-tetrahydrobenzo[4,5]thieno[2,3-d]pyrimidin-4-amine] |  | 
3 |  |  |  | 2.8 ± 0.4 |  | 5 ± 0.6 |  | 24 ± 3 |  | CC(=O)O[C@H]1C(=O)[C@@]2(C)[C@H]([C@H](OC(=O)c3ccccc3)[C@]3(O)C[C@H](OC(=O)[C@H](O)[C@@H](NC(=O)c4ccccc4)c4ccccc4)C(C)=C1C3(C)C)[C@]1(OC(C)=O)CO[C@@H]1C[C@@H]2O [Paclitaxel, paclitaxel, reference compound] |  | did not reach statistical significance
4 | 157 | 87.7 ± 4.7 | 540 ± 80 | 146 ± 14 | 89.0 ± 0.20 | 136 ± 15 | 209 ± 40 | 108 ± 8.6 |  | CSc1ccc(N(C)c2nc(C)nc3sc4c(c23)CCCC4)cc1 [Compound 10, N,2-dimethyl-N-(4-(methylthio)phenyl)-5,6,7,8-tetrahydrobenzo[4,5]thieno[2,3-d]pyrimidin-4-amine] |  | 

Further lines, the molecule ahead of its results:

Row | SMILES | EC50 (A-10 cells) [nM] | IC50 (MDA-MB-435 cells; Homo sapiens) [nM] | IC50 (Bovine brain tubulin) [nM] | IC50 (HeLa cells) [nM] | Inhibition of Colchicine Binding (% inhibition ± SD) (tubulin) [%] | IC50 (SK-OV-3 cells) [nM] | IC50 (SK-OV-3 MDR1-M6/6 cells) [nM] | IC50 (HeLa WTβIII cells) [nM] | IC50 (MDA-MB-435 cells) [nM] | Microtubule depolymerization activity in A-10 cells (A-10 cells) | Antitumor effects on MDA-MB-435 tumor volume vs control (MDA-MB-435 tumors)
5 | COc1ccc(/C=C\c2cc(OC)c(OC)c(OC)c2)cc1O [CA-4, combretastatin A-4] | 13 | 3.4 ± 0.6 | 1000 ± 90 |  |  |  |  |  |  |  | 
6 | CSc1ccc(N(C)c2nc(N)nc3sc4c(c23)CCCC4)cc1 [Compound 5, N4-methyl-N4-(4-(methylthio)phenyl)-5,6,7,8-tetrahydrobenzo[4,5]thieno[2,3-d] pyrimidine-2,4-diamine] | 70 | < 40 | 490 ± 80 | 64.3 ± 4.3 | 94.0 ± 2.0 | 71.8 ± 5.3 | 74.1 ± 11 | 44.1 ± 4.8 | 38.6 ± 5.6 |  | 
7 | COc1ccc(N(C)c2nc(C)nc3sc4c(c23)CCCC4)cc1 [Compound 8, N-(4-methoxyphenyl)-N,2-dimethyl-5,6,7,8-tetrahydrobenzo[4,5]thieno[2,3-d]pyrimidin-4-amine] | 52 | 53 ± 0.3 | 560 ± 90 | 87.9 ± 8.8 | 96.0 ± 0.40 | 47.7 ± 1.2 | 57.5 ± 0.5 | 81.3 ± 5.2 |  |  | 
8 | COc1ccc2c(c1)CCCN2c1nc(N)nc2sc3c(c12)CCCC3 [Compound 6, 4-(6-Methoxy-3,4-dihydroquinolin-1(2H)-yl)-5,6,7,8-tetrahydrobenzo[4,5]thieno[2,3-d]-pyrimidin-2-amine] | 121 | 59.6 ± 11.8 |  | 123 ± 12 |  | 92.5 ± 3.3 | 91.7 ± 12 | 80.3 ± 6.4 |  |  | 
9 | COc1ccc(N(C)c2ncnc3sc4c(c23)CCCC4)cc1 [Compound 7, N-(4-methoxyphenyl)-N-methyl-5,6,7,8-tetrahydrobenzo[4,5]thieno[2,3-d]pyrimidin-4-amine] | 45 | < 40 | 490 ± 60 | 57.2 ± 8.5 | 95.0 ± 0.40 | 37 ± 6.2 | 47.1 ± 7.6 | 38 ± 3.9 | 36.8 ± 5.2 |  | 
10 | CSc1ccc(Nc2nc(C)nc3sc4c(c23)CCCC4)cc1 [Compound 11, 2-Methyl-N-(4-(methylthio)phenyl)-5,6,7,8-tetrahydrobenzo[4,5]thieno[2,3-d]pyrimidin-4-amine] |  |  |  |  |  |  |  |  |  | did not show any activity; also recorded: Not MT active ^c | 
11 | COc1ccc(Nc2nc(C)nc3sc4c(c23)CCCC4)cc1 [Compound 9, N-(4-methoxyphenyl)-2-methyl-5,6,7,8-tetrahydrobenzo[4,5]thieno[2,3-d]pyrimidin-4-amine] |  |  |  |  |  |  |  |  |  | did not show any activity; also recorded: Not MT active ^c | 
12 | Cc1nc(Nc2ccc3c(O)cccc3c2)c2c3c(sc2n1)CCCC3 [Compound 14, 6-((2-Methyl-5,6,7,8-tetrahydrobenzo[4,5]thieno [2,3-d]pyrimidin-4-yl)amino)naphthalen-1-ol] |  |  |  |  |  |  |  |  |  | did not show any activity; also recorded: Not MT active ^c | 
